Key:
[1] = test system: Chinese hamster ovary (CHO) cell line; assay: Cell viability, traditional perfusion vs. RaMP (trypan blue staining); format: cell-based
Method: The production cell line used for all experiments is a CHO (Chinese Hamster Ovary) cell-derived cell line transfected with the desired construct to produce a recombinant IgG1 protein. For all of the experiments, the cell line was grown in the RBM12.1 media under selective pressure (100 μg/ml Hygromycin B and 500 nM methotrexate). The cells were seeded in at a density of 4×10^5 to 1×10^6 cells per milliliter, depending on bioreactor size. pH was kept at 7.1±0.05 and temperature was kept at 37° C.±0.5. The perfusion rate for both traditional perfusion and the methods of the invention (RaMP) was 1.0 to 2.0 volumes/day. The cell retention devices used were the hollow fiber system and/or the cell settler system. […] The cell settler system (retention by gravity) seem to overcome this problem. Sodium butyrate was introduced into the bioreactor after the cells reached the desired cell density (around 20 million cells/ml). Once sodium butyrate was introduced into the perfusion system, the cells were kept at that sodium butyrate condition until the next higher dose. This gradual ramping of sodium butyrate concentration was continued until the desired final concentration of sodium butyrate was reached. Once the desired sodium butyrate concentration is reached, the cells are grown in media in media containing the desired sodium butyrate concentration for the rest of the production run.
The mammalian host cell line used is a Chinese hamster ovary (CHO) cell line. This cell line has been transfected with the light and heavy chains of a chimeric IgG1 monoclonal antibody. The cells were grown in RBM12.1 medium under selective pressure (100 μg/ml Hygromycin B and 500 nM methotrexate (MTX). The medium used for this example contained the components in Table 1. Additional factors such as 10 μg/ml recombinant human insulin and 0.1% F68 are also added to the medium.
During the growth period, the cultures were controlled at pH 7.1±0.05 by the use of CO2 gas (acid) and/or Na2CO3 (base). Temperature was controlled at 37°±0.5 Celsius. Oxygen level was maintained at about 100% air saturation. For the initial growth period, CO2 level was maintained at 5%. When the cell density reached […] cells/ml, CO2 gas to the culture was turned off. The osmolality of the culture was maintained between 325 to 400 mOsm with minimal osmolality drift.
In a typical production schedule, 5×10^5 to 1×10^6 cells were inoculated into the cell culture bioreactor. 1 to 1.5 volumes of media was perfused daily. Cell density and viability was monitored by pulling a sample from the bioreactor and counted using trypan blue staining for live/dead cells.
Ten days after inoculation, the production period was started with the gradual addition of sodium butyrate (Na butyrate) into the RaMP cultures. 1.5 volume of RBM12.1 medium with 1 mM Na butyrate was perfused into the biorector on day 1 of the production period. This concentration of Na butyrate was kept in the bioreactor using the RaMP method for the duration of the production period. For cells in the traditional perfusion method, RBM12.1 media without Na butyrate was perfused into the bioreactor at the same perfusion rate as used in the RaMP method. Cell viability was monitored daily.

[2] = test system: Chinese hamster ovary (CHO) cell line; assay: Effect of mode of sodium butyrate addition (bolus vs. gradual ramping) on cell viability; format: cell-based
Method: In order to investigate if the method used to deliver sodium butyrate into the cell culture bioreactor would effect cell viability, two modes of delivery were tested: bolus introduction of the desired sodium butyrate concentration and the gradual “ramping” to the desired sodium butyrate concentration. The growth period conditions were identical to those described above.
On Day 9, sodium butyrate was introduced into the bioreactors. In the bolus condition, 2 mM sodium butyrate (final concentration) was added to the medium and perfused into the bioreactor. […] The maximal concentration of sodium butyrate was maintained for the rest of the production run. Cell viability was determined by pulling samples from each bioreactor and trypan blue staining for live/dead cells. After the bolus addition of 2 mM sodium butyrate, the cell viability started to decline (after day 9). The bioreactor for the bolus condition was stopped on day 19 after the viability dropped below 50%. In contrast, the gradual ramping of sodium butyrate from day 9 to day 14 maintained high cell viability (over 85%).

[3] = test system: CHO (Chinese Hamster Ovary) cell-derived cell line; assay: Cell viability and cell density, Example 5 (RaMP); format: cell-based
Method: Cells were seeded at 5×10^5 cells/ml and were allowed to grow in the bioreactor for 6 days before the first harvest of recombinant protein on day 7. Conditions for this growth period are similar to those described in Example 1 above. Cells were grown in RBM12.1 media with a perfusion rate of 1 to 1.5 v/day. 1 mM sodium butyrate (final concentration) was added to perfusion medium and was perfused into the bioreactor on day 8. […] 2 mM sodium butyrate (final concentration) was added to the perfusion media and was perfused into the bioreactor on day 11. Cell viability was monitored daily by pulling samples from the bioreactor and trypan blue live/dead staining. Over the production run, the cell density reached upwards of 4.5×10^7 cells/ml. Using the RaMP method, the cell viability remained above 85% viable cells even with the sustained concentration of 2 mM sodium butyrate in the media. The average daily recombinant protein production reached over 0.6 g/L/day.

recombinant CHO cells = settings: perfusion culture; end of the production run, in most cases; cited from earlier work

## CCCC(=O)[O-].[Na+] [sodium butyrate]
[1]; 1 mM Na butyrate perfused from start of production period, day 10
  % viable cells (RaMP): 97%
[1]; 1 mM Na butyrate, day 11
  % viable cells (RaMP): 97.6%
[1]; 1 mM Na butyrate, day 12
  % viable cells (RaMP): 96.4%
[1]; 1 mM Na butyrate, day 13
  % viable cells (RaMP): 97.1%
[1]; 1 mM Na butyrate, day 14
  % viable cells (RaMP): 95.7%
[1]; 1 mM Na butyrate, day 15
  % viable cells (RaMP): 96.1%
[1]; 1 mM Na butyrate, day 16
  % viable cells (RaMP): 97.2%
[1]; 1 mM Na butyrate, day 17
  % viable cells (RaMP): 96.4%
[1]; 1 mM Na butyrate, day 18
  % viable cells (RaMP): 97%
[1]; 1 mM Na butyrate, day 19
  % viable cells (RaMP): 96.9%
[1]; 1 mM Na butyrate, day 20
  % viable cells (RaMP): 95.8%
[1]; RaMP method, 1 mM Na butyrate, production period
  cell viability: sustained high cell viability
[2]; bolus 2 mM from Day 9, day 10 in culture
  % viable cells (bolus): 76%
[2]; bolus 2 mM from Day 9, day 11 in culture
  % viable cells (bolus): 73%
[2]; bolus 2 mM from Day 9, day 12 in culture
  % viable cells (bolus): 76%
[2]; bolus 2 mM from Day 9, day 13 in culture
  % viable cells (bolus): 72%
[2]; bolus 2 mM from Day 9, day 14 in culture
  % viable cells (bolus): 72%
[2]; bolus 2 mM from Day 9, day 15 in culture
  % viable cells (bolus): 84%
[2]; bolus 2 mM from Day 9, day 16 in culture
  % viable cells (bolus): 79%
[2]; bolus 2 mM from Day 9, day 17 in culture
  % viable cells (bolus): 76%
[2]; bolus 2 mM from Day 9, day 18 in culture
  % viable cells (bolus): 80%
[2]; bolus 2 mM from Day 9, day 19 in culture
  % viable cells (bolus): 44%
[2]; bolus 2 mM sodium butyrate introduced Day 9, day 9 in culture
  % viable cells (bolus): 89%
[2]; bolus 2 mM sodium butyrate, day 19, bioreactor stopped
  cell viability: below 50%
[2]; gradual ramping from 0.5 mM Day 9 to maximal by Day 14, day 10 in culture
  % viable cells (RaMP): 97%
[2]; gradual ramping from 0.5 mM Day 9 to maximal by Day 14, day 11 in culture
  % viable cells (RaMP): 97.6%
[2]; gradual ramping from 0.5 mM Day 9 to maximal by Day 14, day 12 in culture
  % viable cells (RaMP): 96.4%
[2]; gradual ramping from 0.5 mM Day 9 to maximal by Day 14, day 13 in culture
  % viable cells (RaMP): 97.1%
[2]; gradual ramping from 0.5 mM Day 9 to maximal by Day 14, day 14 in culture
  % viable cells (RaMP): 95.7%
[2]; gradual ramping of sodium butyrate from day 9 to day 14
  cell viability: over 85%
[2]; maximal concentration maintained after ramping, day 15 in culture
  % viable cells (RaMP): 96.7%
[2]; maximal concentration maintained after ramping, day 16 in culture
  % viable cells (RaMP): 97.2%
[2]; maximal concentration maintained after ramping, day 17 in culture
  % viable cells (RaMP): 96.4%
[2]; maximal concentration maintained after ramping, day 18 in culture
  % viable cells (RaMP): 97%
[2]; maximal concentration maintained after ramping, day 19 in culture
  % viable cells (RaMP): 96.9%
[2]; maximal concentration maintained after ramping, day 20 in culture
  % viable cells (RaMP): 95.8%
[2]; maximal concentration maintained after ramping, day 21 in culture
  % viable cells (RaMP): 95.4%
[2]; maximal concentration maintained after ramping, day 22 in culture
  % viable cells (RaMP): 98.7%
[2]; maximal concentration maintained after ramping, day 23 in culture
  % viable cells (RaMP): 90.6%
[2]; maximal concentration maintained after ramping, day 24 in culture
  % viable cells (RaMP): 89.7%
[2]; maximal concentration maintained after ramping, day 25 in culture
  % viable cells (RaMP): 88.8%
[2]; sodium butyrate from 0.5 mM on Day 9, gradually increased to maximal concentration by Day 14, day 9 in culture
  % viable cells (RaMP): 97.4%
[3]; RaMP, 1 mM then 2 mM sodium butyrate, over the production run
  cell density: > 4.5×10^7 cells/ml
[3]; after 1 mM sodium butyrate perfused on day 8
  cell viability: ≥ 85%
[3]; sustained concentration of 2 mM sodium butyrate in the media (from day 11)
  cell viability: above 85%
Recombinant CHO cells
  cell viability: less than 45%

— patent US20080206819A1, “Intensified Perfusion Production Method” (priority 2006, published 2008)
